According to patent publication US9359196B2, “Antiproliferative compositions comprising curcumin analogs and methods of producing and using same” (The Board of Regents of the University of Oklahoma, priority 2009, dated 2016):

What was measured:
H441 cells [1] = test: Monodansylcadaverine fluorescence microscopy of autophagosomes in H441 cells; type: cell-based, human
Procedure: Monodansylcadaverine (MDC) is an autofluorescent marker for autophagic vacuoles. [Biederbick et al., 1995] It was found the emergence of intense MDC-fluorescence in the treated cells. The fluorescence vanished when the cells were treated with 3-methyl adenine (3-MA). […] [Seglen et al., 1982]

H441 cells [2] = test: MitoSOX Red mitochondrial superoxide imaging / flow cytometry; type: cell-based, human; conditions: 0-20 μM, 12-48 h
Procedure: MitoSOX Red mitochondrial superoxide imaging: Cells were grown to 70% confluency in 24-well tissue culture plates and treated with CLEFMA (0-20 μM) for 12-48 h; treatment with hydrogen peroxide (H2O2, 10 μM) served as a positive control. At the end of the incubation period, both the non-adherent and adherent cells were incubated with 5 μM MitoSOX Red solution (Invitrogen, Carlsbad, Calif.) for 30 min at 37° C. For flow cytometric analysis, the MitoSOX-loaded cells were trypsinized and collected in HBSS (with Ca/Mg) containing 1% BSA and suspended at a density of 1−2×10^7 cells/ml. Approximately 5-10 million cells were aliquoted into a binding buffer and run through an automated dual-laser-excited FACS Calibur (Flow and Imaging Core Facility, OUHSC, Oklahoma City) measuring at 488 nm excitation wavelength. The data were collected at the FSC, FL2 and FL3 channels for at least 10,000 events, and the histogram and dot-plot charts were obtained and analyzed using Summit V4.3 software (Dako Colorado Inc, Carpinteria, Calif.). For microscopy, the MitoSOX-loaded cells were counterstained with 1 μg/ml Hoechst 33342 dye (Molecular Probes, Carlsbad, Calif.). […]

[3] = Phase solubility analysis with HPβCD; type: physicochemical
Procedure: CLEFMA was synthesized and characterized according to the methods described in Example 1. A phase solubility analysis of CLEFMA was performed according to the published method [Higuchi et al., 1965], and ICs of CLEFMA with HPβCD in the solution phase were prepared as reported previously [Agashe et al., 2010]. Briefly, an excess of CLEFMA was added to 5 ml of HPβCD solution (1 g/ml). The mixture was continuously agitated on a shaker incubator at 25° C. for 72 h. After allowing settling of coarse particulate matter for 6 h, the supernatant was centrifuged at 14,000 rpm for 15 min to obtain a clear supernatant free of any insoluble material. The solution was passed through a sterile 0.22 μm cellulose acetate filter, and the amount of HPβCD-solubilized CLEFMA was estimated spectrophotometrically at 320 nm. The phase solubility diagram was constructed by plotting the estimated CLEFMA concentration against HPβCD concentrations. The stability constant was calculated from the phase diagram using the following equation— K1:1=Slope/[S0(1−Slope)], where S0 is CLEFMA solubility in the absence of HPβCD
The complexation efficiency (CE) was calculated as a product of S0 and K1:1

[4] = tested on: colon (HCT-116) cancer cells; test: Proliferation of colon cancer HCT-116 cells; type: cell-based
H441 cells [5] = test: Illumina microarray gene expression analysis of H441 cells; type: cell-based, human; conditions: H441, 1 μM, 12 hours
Procedure: RNA Extraction and microarray sample processing: H441 cells were seeded in […] tissue culture plates at a density of 1×10^6 cells per well. The cells were allowed to attach and grow overnight and then treated with CLEFMA (n=5) at 1 μM in culture medium supplemented with 5% FBS. The DMSO concentration was maintained at 0.1% per well. Control wells (n=5) received equivalent volumes of DMSO without any test compound. The cells were kept in the treatment medium for 12 hours, after which the cells were washed twice with ice-cold Dulbecco's phosphate buffered saline (PBS). The total RNA was extracted using the RNAeasy kit (Qiagen, CA) as per the manufacturer's instructions. The quality of RNA was ascertained by the Nanodrop 2000 spectrophotometer (NanoDrop products, Wilmington, Del.).
The expression of >48,000 genes were compared using Illumina Human WG-6 v3 arrays. Hybridization to Illumina microarrays was performed at the Oklahoma Medical Research Foundation (Oklahoma City, USA). RNA (250 ng) from each sample was labeled using the Illumina Total Prep RNA Amplification Kit following the manufacturer's directions (Ambion, Austin, Tex.). Briefly, cDNA was reverse transcribed from RNA after priming with T7-oligo-dT, and cRNA was synthesized from the T7 promoter while incorporating biotinylated UTP. The cRNA was then hybridized overnight to Illumina BeadChips, and the microarray chips were washed with high stringency and labeled with streptavidin-Cy3 (Amersham Biosciences; Piscataway, N.J.) prior to scanning on an Illumina BeadArray Reader.
Microarray Data Analysis: The Illumina WG-6_v3 array data for each experimental condition were exported from the BeadStudio Software for further analysis. The data were normalized as described previously [Dozmorov et al., 2004; Dozmorov et al., 2009] using the variability of low-expressing genes as a reference point. In order to find genes expressed above the level of technical noise, a frequency histogram of raw expression values was examined for each array. The histogram yielded a right-skewed unimodal distribution curve with a mode of approximately 75. A normal distribution curve representing the variability of the data around zero was then fitted around the mode, mirroring the Gaussian profile of the left part of the histogram. Its parameters were then defined (mean and standard deviation (SD)) and the data were normalized to the standard deviation of the noise after subtraction of the mean. […] The data were then filtered to remove genes with an expression value less than 3.0. This is equivalent to setting a threshold at 3 SD above the noise level. The genes that expressed below the noise level under all experimental conditions (approximately 1,600) were excluded from consideration, as their expression could not be reliably assessed. Full microarray data were deposited in the Gene Expression Omnibus (GEO, GSE23420) and are accessible on the GEO web site.
To identify differentially expressed genes between two experimental groups, the associative analysis as described elsewhere [Dozmorov et al., 2009] was used. Briefly, a reference group of genes expressed above background with low variability of expression in pooled microarray datasets was identified by an F-test. […] For the genes with statistically significant variability above the random, the variations were assumed to have biological reasons. An associative t-test was applied to investigate if a given gene belongs to a certain group. […]

SMILES: O=C(O)C=CC(=O)N1CC(=Cc2ccccc2Cl)C(=O)C(=Cc2ccccc2Cl)C1 [Compound 29, 4-[3,5-Bis-(2-chlorobenzylidene)-4-oxo-piperidin-1-yl]-4-oxo-2-butenoic acid]
- autophagosome formation (MDC fluorescence) (H441 cells [1]): appearance of intracellular vacuoles or autophagosomes
- mitochondrial ROS production (MitoSOX) (H441 cells [2]): time- and dose dependent increase in mitochondrial ROS production
- stability constant of the complex with HPβCD ([3]; 25° C.): 0.0126 M⁻¹
- complexation efficiency ([3]; product of S0 and K1:1): approximately 0.57
- control of proliferation [4]: equally potent in controlling proliferation
- GAPDH expression increase (H441 cells [5]): 1.3 fold
- HMOX1 expression increase (H441 cells [5]): 5.3 fold
- SOD1 expression increase (H441 cells [5]): 1.3 fold
- SULTA1 expression increase (H441 cells [5]): 3.8 fold
- SULTA2 expression increase (H441 cells [5]): 8.5 fold
